Laboratory results taken from patent US20260285888A1, “HETEROCYCLIC COMPOUND AND USE THEREOF” (OTSUKA PHARMACEUTICAL CO., LTD., priority 2023, published 2026).

Experiments:
[1] = in vitro; format: cell-based, human; details: human, differentiated hl-60 cells, 300 μmol/L, about 24 hours, PMA-differentiated HL-60 cells, LDH; no-treatment 0%, cell lysis buffer 100%; read-out: cytotoxicity (%) Evaluation compound results
Description: An HL-60 cell line (human acute promyelocytic leukemia cells) was successively cultured in RPMI 1640 containing 20% fetal bovine serum (FBS) at 37° C. in 95% atmosphere/5% CO2. Before evaluation, the cells were pre-cultured for about 72 hours in the presence of 10 nM phorbol 12-myristate 13-acetate (PMA) to induce macrophage-like differentiation.
Evaluation compounds were dissolved in DMSO to obtain 30 mmol/L solutions (or suspensions). Each DMSO solution was diluted 100-fold with RPMI 1640 containing 2% FBS (final concentration of the compound: 300 μmol/L) to obtain a treatment solution. The culture supernatant of the differentiated HL-60 cells was removed, and each treatment solution was added and cultured for about 24 hours, followed by cytotoxicity evaluation.
The activity of lactate dehydrogenase (LDH) was measured in the treatment solutions exposed to the cells for about 24 hours by using a commercial kit (Cytotoxicity LDH Assay Kit-WST, Dojindo Laboratories) and a plate reader (Tecan Infinite M1000). The obtained measurement values were used to calculate cytotoxicity (%) as comparison values for each evaluation compound-treated group, with the no-treatment group taken as 0% and the cell lysis buffer-treated group taken as 100%. The test was conducted in triplicate in three wells each, and the average values were used as adopted values.

[2] = Study for confirmation of conversion to brexpiprazole in a buffer (stability of the evaluation compounds); format: physicochemical; details: in buffer, average of duplicate; for Concentration of brexpiprazole formed: 60-minute reaction sample; for Concentration of evaluation compound decreased: decrease in 60-minute vs 0-minute reaction sample
Method in brief: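 Compounds (final 1 μmol/L, from 100 μmol/L working solutions) incubated in buffer at 37° C. for 0 or 60 min, in duplicate, after 3 min pre-incubation of the reaction solution. Reactions stopped with acetonitrile/isopropanol (4:1) containing internal standards; compound and formed brexpiprazole quantified against 0.01–1 μmol/L calibration samples.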

SMILES	Concentration of brexpiprazole formed [2] [µM]	Concentration of evaluation compound decreased [2] [µM]	cytotoxicity at 24 h, 300 µM [1] [%]
O=c1ccc2ccc(OCCCC[N+]3(COP(=O)([O-])OCCCCCCCCO)CCN(c4cccc5sccc45)CC3)cc2[nH]1 [EX 11, (4-(benzo[b]thiophen-4-yl)-1-(4-((2-oxo-1,2-dihydroquinolin-7-yl)oxy)butyl)piperazin-1-ium-1-yl)methyl (8-hydroxyoctyl) phosphate]	0.00	0.03	16
CCCCCCCC(=O)OC(C)OP(=O)([O-])OC[N+]1(CCCCOc2ccc3ccc(=O)[nH]c3c2)CCN(c2cccc3sccc23)CC1 (stereo not drawn) [EX 26, (4-(benzo[b]thiophen-4-yl)-1-(4-((2-oxo-1,2-dihydroquinolin-7-yl)oxy)butyl)piperazin-1-ium-1-yl)methyl (1-(octanoyloxy)ethyl) phosphate]	0.00	0.05	-5
COCCC(=O)OCOP(=O)([O-])OC[N+]1(CCCCOc2ccc3ccc(=O)[nH]c3c2)CCN(c2cccc3sccc23)CC1 [EX 28, (4-(benzo[b]thiophen-4-yl)-1-(4-((2-oxo-1,2-dihydroquinolin-7-yl)oxy)butyl)piperazin-1-ium-1-yl)methyl (((3-methoxypropanoyl)oxy)methyl) phosphate]	-0.01	-0.07	-8
CCOCCC(=O)OCOP(=O)([O-])OC[N+]1(CCCCOc2ccc3ccc(=O)[nH]c3c2)CCN(c2cccc3sccc23)CC1 [EX 29, (4-(benzo[b]thiophen-4-yl)-1-(4-((2-oxo-1,2-dihydroquinolin-7-yl)oxy)butyl)piperazin-1-ium-1-yl)methyl (((3-ethoxypropanoyl)oxy)methyl) phosphate]	0.00	-0.01	-4
CCOC(=O)CC(C)(C)CC(=O)OCOP(=O)([O-])OC[N+]1(CCCCOc2ccc3ccc(=O)[nH]c3c2)CCN(c2cccc3sccc23)CC1 [EX 32, (4-(benzo[b]thiophen-4-yl)-1-(4-((2-oxo-1,2-dihydroquinolin-7-yl)oxy)butyl)piperazin-1-ium-1-yl)methyl (((5-ethoxy-3,3-dimethyl-5-oxopentanoyl)oxy)methyl) phosphate]	0.00	0.01	5
COCCOC(=O)OCOP(=O)([O-])OC[N+]1(CCCCOc2ccc3ccc(=O)[nH]c3c2)CCN(c2cccc3sccc23)CC1 [EX 33, (4-(benzo[b]thiophen-4-yl)-1-(4-((2-oxo-1,2-dihydroquinolin-7-yl)oxy)butyl)piperazin-1-ium-1-yl)methyl ((((2-methoxyethoxy)carbonyl)oxy)methyl) phosphate]	0.00	0.00	-7
COCCOCCOC(=O)OCOP(=O)([O-])OC[N+]1(CCCCOc2ccc3ccc(=O)[nH]c3c2)CCN(c2cccc3sccc23)CC1 [EX 34, (4-(benzo[b]thiophen-4-yl)-1-(4-((2-oxo-1,2-dihydroquinolin-7-yl)oxy)butyl)piperazin-1-ium-1-yl)methyl (3-oxo-2,4,7,10-tetraoxaundecyl) phosphate]	0.00	0.01	-10
COCCOCCOCCOC(=O)OCOP(=O)([O-])OC[N+]1(CCCCOc2ccc3ccc(=O)[nH]c3c2)CCN(c2cccc3sccc23)CC1 [EX 35, (4-(benzo[b]thiophen-4-yl)-1-(4-((2-oxo-1,2-dihydroquinolin-7-yl)oxy)butyl)piperazin-1-ium-1-yl)methyl (3-oxo-2,4,7,10,13-pentaoxatetradecyl) phosphate]	0.00	-0.02	-9
COCCCCOC(=O)OCOP(=O)([O-])OC[N+]1(CCCCOc2ccc3ccc(=O)[nH]c3c2)CCN(c2cccc3sccc23)CC1 [EX 36, (4-(benzo[b]thiophen-4-yl)-1-(4-((2-oxo-1,2-dihydroquinolin-7-yl)oxy)butyl)piperazin-1-ium-1-yl)methyl ((((4-methoxybutoxy)carbonyl)oxy)methyl) phosphate]	0.00	-0.04	-10
O=c1ccc2ccc(OCCCC[N+]3(COP(=O)([O-])OCCCCCCO)CCN(c4cccc5sccc45)CC3)cc2[nH]1 [EX 44, (4-(benzo[b]thiophen-4-yl)-1-(4-((2-oxo-1,2-dihydroquinolin-7-yl)oxy)butyl)piperazin-1-ium-1-yl)methyl (6-hydroxyhexyl) phosphate]	0.00	-0.05	-8
O=c1ccc2ccc(OCCCC[N+]3(COP(=O)([O-])OCCCCCCCO)CCN(c4cccc5sccc45)CC3)cc2[nH]1 [EX 45, (4-(benzo[b]thiophen-4-yl)-1-(4-((2-oxo-1,2-dihydroquinolin-7-yl)oxy)butyl)piperazin-1-ium-1-yl)methyl (7-hydroxyheptyl) phosphate]	0.00	0.07	3

Continued, in another order:

Concentration of brexpiprazole formed [2] [µM]	Concentration of evaluation compound decreased [2] [µM]	SMILES	cytotoxicity at 24 h, 300 µM [1] [%]
0.00	0.00	O=c1ccc2ccc(OCCCC[N+]3(COP(=O)([O-])O)CCN(c4cccc5sccc45)CC3)cc2[nH]1 [EX 2, (4-(benzo[b]thiophen-4-yl)-1-((4-((2-oxo-1,2-dihydroquinolin-7-yl)oxy)butyl)piperazin-1-ium-1-yl)methyl hydrogen phosphate]	-7
0.00	-0.02	O=c1ccc2ccc(OCCCC[N+]3(COP(=O)([O-])OCCCCO)CCN(c4cccc5sccc45)CC3)cc2[nH]1 [EX 10, (4-(benzo[b]thiophen-4-yl)-1-(4-((2-oxo-1,2-dihydroquinolin-7-yl)oxy)butyl)piperazin-1-ium-1-yl)methyl (4-hydroxybutyl) phosphate]	-6
0.00	0.02	COCCOP(=O)([O-])OC[N+]1(CCCCOc2ccc3ccc(=O)[nH]c3c2)CCN(c2cccc3sccc23)CC1 [EX 12, (4-(benzo[b]thiophen-4-yl)-1-(4-((2-oxo-1,2-dihydroquinolin-7-yl)oxy)butyl)piperazin-1-ium-1-yl)methyl (2-methoxyethyl) phosphate]	-7
0.00	-0.11	CC(C)C(=O)OCOP(=O)([O-])OC[N+]1(CCCCOc2ccc3ccc(=O)[nH]c3c2)CCN(c2cccc3sccc23)CC1 [EX 24, (4-(benzo[b]thiophen-4-yl)-1-(4-((2-oxo-1,2-dihydroquinolin-7-yl)oxy)butyl)piperazin-1-ium-1-yl)methyl ((isobutyryloxy)methyl) phosphate]	10
0.00	0.06	CC(O)CCOP(=O)([O-])OC[N+]1(CCCCOc2ccc3ccc(=O)[nH]c3c2)CCN(c2cccc3sccc23)CC1 (stereo not drawn) [EX 40, (4-(benzo[b]thiophen-4-yl)-1-(4-((2-oxo-1,2-dihydroquinolin-7-yl)oxy)butyl)piperazin-1-ium-1-yl)methyl (3-hydroxybutyl) phosphate]	-5
0.00	0.07	CC(C)(O)CCOP(=O)([O-])OC[N+]1(CCCCOc2ccc3ccc(=O)[nH]c3c2)CCN(c2cccc3sccc23)CC1 [EX 41, (4-(benzo[b]thiophen-4-yl)-1-(4-((2-oxo-1,2-dihydroquinolin-7-yl)oxy)butyl)piperazin-1-ium-1-yl)methyl (3-hydroxy-3-methylbutyl) phosphate]	-3
0.00	0.03	O=c1ccc2ccc(OCCCC[N+]3(COP(=O)([O-])OC/C=C/CO)CCN(c4cccc5sccc45)CC3)cc2[nH]1 [EX 42, (E)-(4-(benzo[b]thiophen-4-yl)-1-(4-((2-oxo-1,2-dihydroquinolin-7-yl)oxy)butyl)piperazin-1-ium-1-yl)methyl (4-hydroxybut-2-en-1-yl) phosphate]	8
0.00	0.12	O=c1ccc2ccc(OCCCC[N+]3(COP(=O)([O-])OC/C=C\CO)CCN(c4cccc5sccc45)CC3)cc2[nH]1 [EX 43, (Z)-(4-(benzo[b]thiophen-4-yl)-1-(4-((2-oxo-1,2-dihydroquinolin-7-yl)oxy)butyl)piperazin-1-ium-1-yl)methyl (4-hydroxybut-2-en-1-yl) phosphate]	-6
